ChEMBL document CHEMBL5665443, “Enzyme Inhibitor Single Concentration assay results for EUbOPEN Chemogenomics Library” (2024)

Columns and labels:
[1] = molecular target: Endonuclease 8-like 1 (Homo sapiens) (UniProt Q96FI4); settings: Hit No;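 also: fluorescence at 594 nm from quenched duplex DNA oligonucleotides released by NEIL1 cleavage and strand separation, reported as reduction of this enzyme activity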
Description: Inhibition of NEIL1 by quantifying inhibition of NEIL1-mediated cleavage and dissociation of quenched duplex DNA oligonucleotides, measured as fluorescence at 594 nm.

[2] = molecular target: T1, Adenine DNA glycosylase (Homo sapiens) (UniProt Q9UIF7); settings: Hit No;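 also: human MUTYH activity read as 594 nm fluorescence from cleavage and release of a quenched DNA duplex, coupled with APE1 for strand incision, lower signal meaning inhibition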
T1 sequence (whole entry): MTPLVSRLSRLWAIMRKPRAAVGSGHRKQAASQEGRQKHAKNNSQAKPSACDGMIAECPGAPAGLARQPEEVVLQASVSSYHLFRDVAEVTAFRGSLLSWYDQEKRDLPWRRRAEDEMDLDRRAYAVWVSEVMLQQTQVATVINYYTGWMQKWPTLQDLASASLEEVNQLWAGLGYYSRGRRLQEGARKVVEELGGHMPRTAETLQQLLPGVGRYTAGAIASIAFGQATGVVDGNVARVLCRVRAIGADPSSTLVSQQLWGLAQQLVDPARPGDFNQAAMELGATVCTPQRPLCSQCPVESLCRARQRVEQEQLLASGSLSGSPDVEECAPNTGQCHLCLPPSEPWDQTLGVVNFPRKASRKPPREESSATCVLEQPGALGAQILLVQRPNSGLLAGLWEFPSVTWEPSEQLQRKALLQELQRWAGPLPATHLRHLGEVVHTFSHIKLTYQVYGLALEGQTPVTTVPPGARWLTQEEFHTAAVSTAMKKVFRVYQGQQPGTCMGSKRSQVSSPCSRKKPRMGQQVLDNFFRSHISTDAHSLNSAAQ
Description: Inhibition of MUTYH by quantifying inhibition of MUTYH-mediated cleavage and dissociation of quenched duplex DNA oligonucleotides, measured as fluorescence at 594 nm. To generate a functional strand incision and increase turn-over this assay is coupled to APE1.

[3] = molecular target: N-glycosylase/DNA lyase (Homo sapiens) (UniProt O15527); settings: Compound Concentration 10.0 uM;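 also: OGG1 cleavage of a quenched duplex DNA oligonucleotide, coupled to APE1 for strand incision, read as fluorescence at 594 nm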
Description: Inhibition of OGG1 by quantifying inhibition of OGG1-mediated cleavage and dissociation of quenched duplex DNA oligonucleotides, measured as fluorescence at 594 nm. To generate a functional strand incision and increase turn-over this assay is coupled to APE1.

[4] = molecular target: G/T mismatch-specific thymine DNA glycosylase (Homo sapiens) (UniProt Q13569); settings: Hit No;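 also: human TDG cleavage of quenched duplex DNA oligonucleotides coupled to APE1, strand release read as fluorescence at 594 nm, inhibition of TDG activity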
Description: Inhibition of TDG by quantifying inhibition of TDG-mediated cleavage and dissociation of quenched duplex DNA oligonucleotides, measured as fluorescence at 594 nm. To generate a functional strand incision and increase turn-over this assay is coupled to APE1.

[5] = molecular target: Uracil-DNA glycosylase (Homo sapiens) (UniProt P13051); settings: Hit No;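 also: UNG excision on a quenched double-stranded DNA oligo probe, with APE1 added for strand incision and turnover, read as fluorescence at 594 nm as strands separate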
Description: Inhibition of UNG by quantifying inhibition of UNG-mediated cleavage and dissociation of quenched duplex DNA oligonucleotides, measured as fluorescence at 594 nm. To generate a functional strand incision and increase turn-over this assay is coupled to APE1.

[6] = molecular target: Methyl-CpG-binding domain protein 4 (Homo sapiens) (UniProt O95243); settings: Hit No;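 also: MBD4 activity read as fluorescence at 594 nm from cleavage and release of a quenched duplex DNA oligonucleotide, with APE1 coupled to incise the strand and raise turnover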
Description: Inhibition of MBD4 by quantifying inhibition of MBD4-mediated cleavage and dissociation of quenched duplex DNA oligonucleotides, measured as fluorescence at 594 nm. To generate a functional strand incision and increase turn-over this assay is coupled to APE1.

[7] = molecular target: T2, Endonuclease III-like protein 1 (Homo sapiens) (UniProt P78549); settings: Hit No;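 also: enzyme assay tracking NTHL1 cutting and release of a quenched double-stranded DNA oligo substrate, read as fluorescence at 594 nm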
T2 sequence (whole entry): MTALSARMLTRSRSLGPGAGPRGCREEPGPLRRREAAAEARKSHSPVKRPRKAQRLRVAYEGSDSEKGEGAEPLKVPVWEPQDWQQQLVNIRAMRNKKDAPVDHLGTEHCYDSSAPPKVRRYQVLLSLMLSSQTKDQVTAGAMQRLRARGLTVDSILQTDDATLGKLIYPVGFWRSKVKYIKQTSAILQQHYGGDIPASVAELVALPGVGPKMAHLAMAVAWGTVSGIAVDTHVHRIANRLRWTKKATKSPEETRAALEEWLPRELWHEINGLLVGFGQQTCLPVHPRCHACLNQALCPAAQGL
Description: Inhibition of NTHL1 by quantifying inhibition of NTHL1-mediated cleavage and dissociation of quenched duplex DNA oligonucleotides, measured as fluorescence at 594 nm.

[8] = molecular target: T3, Endonuclease 8-like 2 (Homo sapiens) (UniProt Q969S2); settings: Hit No;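 also: fluorescence at 594 nm reports NEIL2 cutting and release of a quenched double-stranded DNA oligo substrate, reduced signal read as inhibition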
T3 sequence (whole entry): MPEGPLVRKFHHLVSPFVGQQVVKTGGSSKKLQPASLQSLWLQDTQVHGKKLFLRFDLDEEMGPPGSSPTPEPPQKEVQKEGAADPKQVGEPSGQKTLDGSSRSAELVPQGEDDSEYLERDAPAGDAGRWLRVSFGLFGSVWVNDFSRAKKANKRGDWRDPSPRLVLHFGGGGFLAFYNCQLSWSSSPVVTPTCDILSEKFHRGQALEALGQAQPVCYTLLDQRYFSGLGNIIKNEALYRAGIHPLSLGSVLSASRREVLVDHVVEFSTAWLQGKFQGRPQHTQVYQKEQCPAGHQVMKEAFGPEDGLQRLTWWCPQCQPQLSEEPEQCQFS
Description: Inhibition of NEIL2 by quantifying inhibition of NEIL2-mediated cleavage and dissociation of quenched duplex DNA oligonucleotides, measured as fluorescence at 594 nm.

[9] = molecular target: T4, Single-strand selective monofunctional uracil DNA glycosylase (Homo sapiens) (UniProt Q53HV7); settings: Hit No;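 also: enzymatic SMUG1 assay coupled with APE1, reading fluorescence at 594 nm released when a quenched double-stranded DNA oligonucleotide substrate is cleaved and separated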
T4 sequence (whole entry): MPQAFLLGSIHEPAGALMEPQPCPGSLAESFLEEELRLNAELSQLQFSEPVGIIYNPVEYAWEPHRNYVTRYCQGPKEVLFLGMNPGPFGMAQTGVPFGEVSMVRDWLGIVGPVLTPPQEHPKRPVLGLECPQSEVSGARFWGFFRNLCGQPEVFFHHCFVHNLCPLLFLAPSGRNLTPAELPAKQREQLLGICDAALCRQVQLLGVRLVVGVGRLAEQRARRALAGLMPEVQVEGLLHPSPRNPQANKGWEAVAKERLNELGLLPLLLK
Description: Inhibition of SMUG1 by quantifying inhibition of SMUG1-mediated cleavage and dissociation of quenched duplex DNA oligonucleotides, measured as fluorescence at 594 nm. To generate a functional strand incision and increase turn-over this assay is coupled to APE1.

Chain of Methyl-CpG-binding domain protein 4 (Homo sapiens) (O95243 whole entry, the tested form may be a part): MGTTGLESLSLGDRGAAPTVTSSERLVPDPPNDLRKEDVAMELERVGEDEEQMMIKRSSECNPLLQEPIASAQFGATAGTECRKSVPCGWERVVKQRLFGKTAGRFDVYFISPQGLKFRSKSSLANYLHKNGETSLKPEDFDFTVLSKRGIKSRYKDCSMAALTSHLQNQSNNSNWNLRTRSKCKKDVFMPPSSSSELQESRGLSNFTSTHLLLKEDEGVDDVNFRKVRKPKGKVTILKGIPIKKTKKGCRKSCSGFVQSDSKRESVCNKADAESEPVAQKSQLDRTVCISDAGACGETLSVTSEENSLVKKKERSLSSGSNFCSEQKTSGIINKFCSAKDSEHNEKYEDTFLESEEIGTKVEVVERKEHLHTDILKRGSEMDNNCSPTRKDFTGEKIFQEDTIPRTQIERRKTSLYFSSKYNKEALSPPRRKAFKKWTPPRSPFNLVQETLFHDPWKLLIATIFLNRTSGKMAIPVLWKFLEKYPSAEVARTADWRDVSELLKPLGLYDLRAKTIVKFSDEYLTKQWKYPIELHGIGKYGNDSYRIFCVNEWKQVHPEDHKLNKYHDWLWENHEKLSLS
Chain of Endonuclease 8-like 1 (Homo sapiens) (Q96FI4 whole entry): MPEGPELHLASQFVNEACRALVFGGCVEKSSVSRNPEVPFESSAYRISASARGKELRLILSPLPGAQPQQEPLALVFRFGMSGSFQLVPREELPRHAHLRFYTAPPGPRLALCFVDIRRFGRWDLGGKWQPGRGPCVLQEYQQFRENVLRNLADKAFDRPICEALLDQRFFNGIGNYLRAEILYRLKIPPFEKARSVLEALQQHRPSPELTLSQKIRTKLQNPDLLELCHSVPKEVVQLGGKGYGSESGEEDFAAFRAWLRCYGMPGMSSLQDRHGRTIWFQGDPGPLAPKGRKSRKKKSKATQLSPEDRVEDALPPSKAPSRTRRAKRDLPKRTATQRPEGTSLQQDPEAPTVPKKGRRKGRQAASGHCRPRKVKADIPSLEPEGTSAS
Chain of G/T mismatch-specific thymine DNA glycosylase (Homo sapiens) (Q13569 whole entry): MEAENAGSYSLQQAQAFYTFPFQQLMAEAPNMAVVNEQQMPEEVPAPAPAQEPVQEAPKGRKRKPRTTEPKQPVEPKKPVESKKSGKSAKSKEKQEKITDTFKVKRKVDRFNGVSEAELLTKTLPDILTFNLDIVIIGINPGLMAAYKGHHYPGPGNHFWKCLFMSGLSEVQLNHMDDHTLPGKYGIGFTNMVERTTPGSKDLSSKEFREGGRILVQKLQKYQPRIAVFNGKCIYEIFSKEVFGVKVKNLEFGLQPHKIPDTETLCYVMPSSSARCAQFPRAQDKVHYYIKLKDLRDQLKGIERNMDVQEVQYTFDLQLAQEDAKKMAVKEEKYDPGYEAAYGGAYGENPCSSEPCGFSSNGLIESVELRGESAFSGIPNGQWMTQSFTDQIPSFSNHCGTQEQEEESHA
Chain of N-glycosylase/DNA lyase (Homo sapiens) (O15527 whole entry): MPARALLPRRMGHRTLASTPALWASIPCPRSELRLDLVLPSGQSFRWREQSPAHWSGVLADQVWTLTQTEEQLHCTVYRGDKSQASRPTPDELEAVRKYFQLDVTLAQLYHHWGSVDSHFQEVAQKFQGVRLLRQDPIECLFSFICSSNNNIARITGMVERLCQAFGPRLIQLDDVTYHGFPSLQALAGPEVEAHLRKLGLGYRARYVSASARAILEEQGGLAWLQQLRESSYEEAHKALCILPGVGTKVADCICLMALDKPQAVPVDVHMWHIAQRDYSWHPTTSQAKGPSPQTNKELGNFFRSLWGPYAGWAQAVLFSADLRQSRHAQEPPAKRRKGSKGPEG
Chain of Uracil-DNA glycosylase (Homo sapiens) (P13051 whole entry, the tested form may be a part): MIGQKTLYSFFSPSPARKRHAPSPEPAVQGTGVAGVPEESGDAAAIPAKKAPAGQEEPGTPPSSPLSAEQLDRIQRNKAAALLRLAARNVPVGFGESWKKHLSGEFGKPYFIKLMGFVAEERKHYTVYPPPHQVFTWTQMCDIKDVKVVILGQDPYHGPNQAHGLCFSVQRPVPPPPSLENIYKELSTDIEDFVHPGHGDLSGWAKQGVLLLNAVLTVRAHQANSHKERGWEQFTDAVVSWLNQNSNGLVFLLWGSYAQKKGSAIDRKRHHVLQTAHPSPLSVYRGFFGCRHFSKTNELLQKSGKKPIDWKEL

| Compound | inhibition ([1]; Compound Concentration 10.0 uM) [%] | inhibition ([2]; Compound Concentration 10.0 uM) [%] | inhibition ([3]; Hit No) [%] | inhibition ([4]; Compound Concentration 10.0 uM) [%] | inhibition ([5]; Compound Concentration 10.0 uM) [%] | inhibition ([6]; Compound Concentration 10.0 uM) [%] | inhibition ([7]; Compound Concentration 10.0 uM) [%] | inhibition ([8]; Compound Concentration 10.0 uM) [%] | inhibition ([1]; Compound Concentration 1.0 uM) [%] | inhibition ([8]; Compound Concentration 1.0 uM) [%] | inhibition ([2]; Compound Concentration 1.0 uM) [%] | inhibition ([9]; Compound Concentration 1.0 uM) [%] | inhibition ([4]; Compound Concentration 1.0 uM) [%] | inhibition ([5]; Compound Concentration 1.0 uM) [%] | inhibition ([6]; Compound Concentration 1.0 uM) [%] | inhibition ([7]; Compound Concentration 1.0 uM) [%] | inhibition ([9]; Compound Concentration 10.0 uM) [%] | inhibition ([3]; Hit Yes) [%] |
| --- | --- | --- | --- | --- | --- | --- | --- | --- | --- | --- | --- | --- | --- | --- | --- | --- | --- | --- |
| N[C@@H](Cc1cc(I)c(Oc2ccc(O)c(I)c2)c(I)c1)C(=O)O | -7.26 | 10.3 | 4.51 | 102 | 5.16 | 68.9 | -3.92 | – | – | – | – | – | – | – | – | – | – | – |
| CSCC[C@H](NC(=O)[C@H](Cc1ccccc1)NC(=O)[C@H](Cc1c[nH]cn1)NC(=O)CNC(=O)[C@@H](NC(=O)[C@H](C)NC(=O)[C@H](Cc1c[nH]c2ccccc12)NC(=O)[C@H](CC(C)C)NC(=O)[C@H](CC(N)=O)NC(=O)CN)[C@@H](C)O)C(N)=O | 10.5 | 11.4 | – | -7.68 | -8.29 | -1.83 | 8.82 | -6.21 | – | – | – | – | – | – | – | – | – | – |
| Cc1cc(F)c(C(=O)Nc2cccc(-c3nncn3C(C)C)n2)cc1-n1cnc(C2CC2)c1 | – | – | – | – | – | – | – | – | 8.59 | 2.93 | 8.56 | 12.2 | 44.4 | -0.67 | 18.6 | -4.79 | – | – |
| c1ccc(N2CCN(Cc3nc4ccccc4[nH]3)CC2)nc1 | – | 2.22 | -5.49 | 29.5 | -4.15 | 29.2 | 0.934 | – | – | – | – | – | – | – | – | – | – | – |
| CC#CC(=O)N1CCC[C@H]1c1nc(-c2ccc(C(=O)Nc3ccccn3)cc2)c2c(N)nccn12 | – | 0.794 | 1.98 | 55.9 | 4.65 | -0.914 | -7.58 | – | – | – | – | – | – | – | – | – | – | – |
| N[C@@]1(C(=O)O)CO[C@H]2[C@H](C(=O)O)[C@H]21 | -2.51 | 10.7 | – | 9.39 | -8.59 | 10.3 | 24.5 | -7.74 | – | – | – | – | – | – | – | – | 2.42 | – |
| COc1ccccc1S(=O)(=O)Nc1ccc(C)cc1Oc1ccc2c(N)nccc2c1 | 11 | 3.09 | -5.28 | 9.87 | -1.95 | 10.2 | 17.1 | 7.55 | – | – | – | – | – | – | – | – | – | – |
| CN1C2CCCC1CC(Nc1ccccc1Br)C2 (stereo not drawn) | -3.4 | 6.82 | – | -8.71 | -6.41 | 11.1 | 24.5 | -3.41 | – | – | – | – | – | – | – | – | -9 | – |
| N#Cc1c(N)nc(SCc2csc(-c3ccc(Cl)cc3)n2)c(C#N)c1-c1ccc(OCCO)cc1 | – | 7.45 | – | 6.03 | -1.02 | -6.16 | 4.7 | – | – | – | – | – | – | – | – | – | – | 55.1 |
| Clc1ccc(OC[C@H]2CCN2)cn1 | -0.584 | -6.13 | -5.75 | – | -3.96 | -2.21 | 5.52 | -6.72 | – | – | – | – | – | – | – | – | – | – |
| CN1CCN(c2cc(-c3ccccc3)nc(N)n2)CC1 | -2.28 | -4.71 | – | 1.13 | -9.1 | -3.57 | 9.99 | 7 | – | – | – | – | – | – | – | – | – | – |
| COc1ccc(NC(=O)[C@@H]2C[C@H](C)CC[C@H]2C(C)C)cc1 | -2.36 | -7.01 | – | -1.07 | -3.01 | 1.36 | 15.4 | -3.15 | – | – | – | – | – | – | – | – | 11.3 | – |
| O=C1c2cccc3c2[C@H](CCC3)CN1[C@@H]1CN2CCC1CC2 | -2.96 | -5.22 | – | 0.841 | -7.93 | 0.552 | 3.04 | – | – | – | – | – | – | – | – | – | -4.7 | – |
